Reference: US20070128217A1 (priority 2003, published 2007)

Legend:
[1] = test system: antibodies in sera from SARS patients (sera 1a, 1b, 2, 6, 37, 62, London, SARS-yellow, SARS-green); assay type: binding, human; parameters: Binding of serum 6 to linear peptides of protein X1 of SARS-CoV Urbani / Binding of serum 37 to linear peptides of protein X1 of SARS-CoV Urbani / Binding of serum 6 to looped/cyclic peptide (PEPSCAN-ELISA) / Binding of serum 37 to looped/cyclic peptide (PEPSCAN-ELISA) / Binding of serum 37 to looped/cyclic peptides of protein X1 of SARS-CoV Urbani / Binding of serum 6 to linear peptides of protein X2 / Binding of serum 37 to linear peptides of protein X2 / Binding of serum 37 to looped/cyclic peptides of protein X2 of SARS-CoV Urbani / Binding of serum 6 to linear peptides of protein M of SARS-CoV Urbani / Binding of serum 37 to linear peptides of protein M of SARS-CoV Urbani / Binding of serum 6 to looped/cyclic peptides of protein M of SARS-CoV Urbani / Binding of serum 37 to looped/cyclic peptides of protein M of SARS-CoV Urbani / Binding of serum 6 to linear peptides of protein X3 of SARS-CoV Urbani / Binding of serum 37 to linear peptides of protein X3 of SARS-CoV Urbani / Binding of serum 37 to looped/cyclic peptides of protein X3 of SARS-CoV Urbani / Binding of serum 6 to linear peptides of protein X4 of SARS-CoV Urbani / Binding of serum 37 to linear peptides of protein X4 of SARS-CoV Urbani / Binding of serum 37 to looped/cyclic peptides of protein X4 of SARS-CoV Urbani / Binding of serum 6 to linear peptides of protein X5 of SARS-CoV Urbani / Binding of serum 37 to linear peptides of protein X5 of SARS-CoV Urbani / Binding of serum 37 to looped/cyclic peptides of protein X5 of SARS-CoV Urbani / Binding of serum 6 to linear peptides of protein N of SARS-CoV Urbani / Binding of serum 37 to linear peptides of protein N of SARS-CoV Urbani / Binding of serum 6 to linear peptide (PEPSCAN-ELISA) / Binding of serum 1a to looped/cyclic peptides of protein N of SARS-CoV Urbani / Binding of serum 1b to looped/cyclic peptides of protein N of SARS-CoV Urbani / Binding of serum 2 to looped/cyclic peptides of protein N of SARS-CoV Urbani / Binding of serum 6 to looped/cyclic peptides of protein N of SARS-CoV Urbani / Binding of serum 37 to looped/cyclic peptides of protein N of SARS-CoV Urbani / Binding of serum 62 to looped/cyclic peptides of protein N of SARS-CoV Urbani / Binding of serum London to looped/cyclic peptides of protein N of SARS-CoV Urbani / Binding of serum SARS-green to looped/cyclic peptides of protein N of SARS-CoV Urbani: unit not given here
[2] = test system: control sera (pooled serum of ten healthy LUMC hospital workers; commercial negative donor pooled serum from the Dutch bloodbank); assay type: binding, human; parameters: Binding of Control serum LUMC to linear peptides / Binding of Control serum Blood-bank to linear peptides / Binding of Control serum LUMC to looped peptides / Binding of Control Serum Blood-Bank to Looped peptides / Binding of Control serum LUMC to linear peptides of the protein M of SARS-CoV Urbani / Binding of Control serum Blood-bank to linear peptides of the protein M of SARS-CoV Urbani / Binding of Control serum LUMC to looped peptides of the protein M of SARS-CoV Urbani / Binding of Control Serum Blood-Bank to Looped peptides of the protein M of SARS-CoV Urbani: unit not given here
[3] = test system: rabbit serum obtained by immunizing a rabbit with the SARS-CoV strain Frankfurt 1; assay type: binding; parameters: Binding of a rabbit serum to linear peptides / Binding of a rabbit serum to looped peptides / Rabbit serum linear peptides / Rabbit serum looped peptides / Binding of a rabbit serum to linear peptides of protein N of SARS-CoV Urbani (Rabbit serum linear peptides) / Binding of a rabbit serum to looped/cyclic peptides of protein N of SARS-CoV Urbani (Rabbit serum looped peptides): unit not given here
[4] = test system: recombinant human anti-SARS-CoV antibody 03-018; assay type: binding; parameters: Binding of antibody 03-018 to linear peptides of the N protein of SARS-CoV Urbani / Binding of antibody 03-018 to looped/cyclic peptides of the N protein of SARS-CoV Urbani: unit not given here

Sequence | Binding of serum 1a to linear peptide (PEPSCAN-ELISA) [1] | Binding of serum 1a to looped/cyclic peptides of protein N of SARS-CoV Urbani [1] | Binding of serum 1b to linear peptide (PEPSCAN-ELISA) [1] | Binding of serum 1b to looped/cyclic peptides of protein N of SARS-CoV Urbani [1] | Binding of serum 2 to linear peptide (PEPSCAN-ELISA) [1] | Binding of serum 2 to looped/cyclic peptides of protein N of SARS-CoV Urbani [1] | Binding of serum 6 to looped/cyclic peptides of protein N of SARS-CoV Urbani [1] | Binding of serum 37 to looped/cyclic peptides of protein N of SARS-CoV Urbani [1] | Binding of serum 62 to looped/cyclic peptides of protein N of SARS-CoV Urbani [1] | Binding of serum London to looped/cyclic peptides of protein N of SARS-CoV Urbani [1] | Binding of serum SARS-green to looped/cyclic peptides of protein N of SARS-CoV Urbani [1] | Binding of serum SARS-yellow to looped/cyclic peptides of protein N of SARS-CoV Urbani [1] | Binding of Control Serum Blood-Bank to Looped peptides [2] | Binding of Control serum Blood-bank to linear peptides [2] | Binding of Control serum LUMC to linear peptides [2] | Binding of Control serum LUMC to looped peptides [2] | Binding of a rabbit serum to linear peptides of protein N of SARS-CoV Urbani (Rabbit serum linear peptides) [3] | Binding of a rabbit serum to looped/cyclic peptides of protein N of SARS-CoV Urbani (Rabbit serum looped peptides) [3] | Binding of antibody 03-018 to linear peptides of the N protein of SARS-CoV Urbani [4] | Binding of antibody 03-018 to looped/cyclic peptides of the N protein of SARS-CoV Urbani [4] | further results
DQDLIRQGTDYKHWP | 0.3 | 0.2 | 0.1 | 0.1 | 0.2 | 0.3 | 0.1 | 0.4 | 0.3 | 0.3 | 0.1 | 0.1 | 0.4 | 0.8 | 0.7 | 0.4 | 0.1 | 0.1 | 0.1 | 0.2 | Binding of serum 6 to linear peptide (PEPSCAN-ELISA) [1]: 0.2; Binding of serum 37 to linear peptide (PEPSCAN-ELISA) [1]: 0.7; Binding of serum 62 to linear peptide (PEPSCAN-ELISA) [1]: 0.6; Binding of serum London to linear peptide (PEPSCAN-ELISA) [1]: 0.8; Binding of serum SARS-green to linear peptide (PEPSCAN-ELISA) [1]: 0.5; Binding of serum SARS-yellow to linear peptide (PEPSCAN-ELISA) [1]: 0.7
DRLNQLESKVSGKGQ | 0.3 | 0.4 | 0.1 | 0.3 | 0.3 | 0.6 | 0.4 | 0.6 | 0.4 | 0.4 | 0.4 | 0.8 | 0.6 | 0.9 | 0.7 | 0.6 | 0.3 | 0.4 | 0.1 | 0.3 | Binding of serum 6 to linear peptide (PEPSCAN-ELISA) [1]: 0.2; Binding of serum 37 to linear peptide (PEPSCAN-ELISA) [1]: 0.8; Binding of serum 62 to linear peptide (PEPSCAN-ELISA) [1]: 0.7; Binding of serum London to linear peptide (PEPSCAN-ELISA) [1]: 0.5; Binding of serum SARS-green to linear peptide (PEPSCAN-ELISA) [1]: 0.5; Binding of serum SARS-yellow to linear peptide (PEPSCAN-ELISA) [1]: 0.7
DSTDNNQNGGRNGAR |  | 0.4 |  | 0.3 |  | 0.5 | 0.3 | 0.7 | 0.4 | 0.5 | 0.8 | 0.5 | 0.6 | 0.8 | 0.7 | 0.7 | 0.1 | 0.5 | 0.2 | 0.3 | Binding of serum 1a to linear peptides of protein N of SARS-CoV Urbani [1]: 0.2; Binding of serum 1b to linear peptides of protein N of SARS-CoV Urbani [1]: 0.1; Binding of serum 2 to linear peptides of protein N of SARS-CoV Urbani [1]: 0.2; Binding of serum 6 to linear peptides of protein N of SARS-CoV Urbani [1]: 0.2; Binding of serum 37 to linear peptides of protein N of SARS-CoV Urbani [1]: 1.0; Binding of serum 62 to linear peptides of protein N of SARS-CoV Urbani [1]: 0.8; Binding of serum London to linear peptides of protein N of SARS-CoV Urbani [1]: 0.5; Binding of serum SARS-green to linear peptides of protein N of SARS-CoV Urbani [1]: 0.5; Binding of serum SARS-yellow to linear peptides of protein N of SARS-CoV Urbani [1]: 0.5
